# Measurements published in US8796268B2, “Heteroaryls and uses thereof” (Millennium Pharmaceuticals, Inc., priority 2010, dated 2014).
# Where two headings read alike, the source gives them in different places.
# Columns and labels:
# Format in all cases: biochemical
# Human PI3K delta = biological target: T1, Human PI3K delta (Homo sapiens, UniProt O00329); test: Human PI3K delta enzyme assay (HTRF)
# T1 construct: His (N); host or cells: SF9 insect cells (baculovirus)
# How it was run: (§1)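 Compounds were mixed with 25 uM ATP, then with 3.5 uM di-C8 PI(4,5)P2 and His-tagged PI3K isoform (β 5.25 nM, δ 0.75 nM, γ 5 nM) at pH 7.00. After 30 min at room temperature, EDTA stopped the reaction and PIP3 was measured by HTRF over 1 h.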
# Human PI3K alpha = biological target: T2, Human PI3K alpha (Homo sapiens, UniProt P42336); test: Human PI3K alpha enzyme assay (HTRF)
# T2 construct: His (N); host or cells: SF9 insect cells (baculovirus)
# Human VPS34 = biological target: T3, Human VPS34 (Homo sapiens, UniProt Q8NEB9); test: Human VPS34 enzyme assay (Adapta Universal Kinase Assay); details: at a 1.0 μM concentration; read-out: VPS34 Percent Inhibition
# T3 construct: GST (with thrombin site, pDEST20-Thrombin) (N); host or cells: SF9 insect cells (baculovirus)
# Description: The catalytic subunits of PI3Ks are cloned into either pDEST8(p110 alpha) or pDEST10(p110beta, p110delta, and p110gamma) as N-terminal His tagged fusion proteins using the Gateway system (Invitrogen, catalog#11804-010 for pDEST8 and 11806-015 for pDEST10). The sequences are verified before recombinant protein expression using the Baculovirus Expression System with Gateway® Technology. The accession numbers for the subunits are as follows: • p110 alpha (GB:U79143) • p110beta (GB: S67334) • p110delta (GB: U86453) • p110gamma (GB: X83368) • The regulatory subunits of PI3Ks are cloned into pDEST8 as un-tagged protein using the Gateway system (Catalog#11804-010). The sequences are verified before recombinant protein expression using the Baculovirus Expression System with Gateway® Technology. The accession numbers for the subunits are as following: • p85 alpha (GB: BC030815) • p101(GB: AB028925) • VPS34 (accession number GB:BC033004) is cloned into pDEST20—Thombin as N-terminal GST tagged fusion proteins using the Gateway system (Invitrogen, catalog#11804-013). The sequences are verified before recombinant protein expression using the Baculovirus Expression System with Gateway® Technology.
# For expression VPS34 was infected at 1MOI in SF9 cells and harvested 72 hours post infection.
# For purification, VPS34 is purified by Glutathione Sepharose 4 Fast Flow (GE Healthcare #17-5132-03) followed by HiTrap Q (GE Healthcare #17-1153-01).
# 3) VPS34 is assayed using Adapta™ Universal Kinase Assay Kit (Invitrogen).
# 4) Human VPS34 enzyme assay method
# 100 nL compounds in DMSO are added to wells of a 384 well microtitre plate (Greiner 780076). At room temperature: 5 ul VPS34 reaction buffer (Invitrogen Assay Buffer Q (diluted 1 in 5 with nanopure water) plus 2 mM DTT and 2 mM MnCl2) containing ATP (20 uM, Promega) and 200 uM PI—PS substrate (Invitrogen PV5122) is added followed immediately by 5 ul VPS34 reaction buffer (as above) containing VPS34 (5 nM, Millennium Protein Sciences Group) and the mixture is incubated with shaking at room temperature for 1 hour. Then 5 ul VPS34 stop-detect mix (as per Invitrogen Adapta Assay kit (PV5009) instructions (contains kinase quench buffer, TR-FRET buffer, Adapta Eu anti-ADP antibody and Alexa Fluor 647 ADP tracer)) is added to quench the reaction. The plates are then incubated for 30 minutes at room temperature with shaking and then read on a BMG PheraStar Plus reader.
# For the assay methods described above, test compound percent inhibition, at various concentrations, is calculated relative to control (DMSO and EDTA) treated samples. Compound concentration versus percent inhibition curves are fitted to generate IC50 values. One skilled in the art will appreciate that the values generated either as percentage inhibition at a single concentration or IC50 values are subject to experimental variation.
# Human PI3K gamma = biological target: T4, Human PI3K gamma (Homo sapiens, UniProt P48736); test: Human PI3K gamma enzyme assay (HTRF)
# T4 construct: His (N); host or cells: SF9 insect cells (baculovirus)
# How it was run: as §1
# Human PI3K beta = biological target: T5, Human PI3K beta (Homo sapiens, UniProt P42338); test: Human PI3K beta enzyme assay (HTRF)
# T5 construct: His (N); host or cells: SF9 insect cells (baculovirus)
# How it was run: as §1
# [1] = at a 1.0 μM concentration, read-out: PI3Kδ Percent Inhibition
# [2] = at a 1.1 μM concentration, read-out: PI3Kα Percent Inhibition
# [3] = at a 1.0 μM concentration, read-out: PI3Kγ Percent Inhibition
# [4] = at a 1.1 μM concentration, read-out: PI3β Percent Inhibition
# [5] = concentration not given, b1389 states 1.0 μM for PI3K δ and γ, read-out: p110 delta Percent Inhibition
# [6] = concentration not given, b1387 states 1.1 μM for PI3K α and β, read-out: p110 alpha Percent Inhibition
# [7] = concentration not given, b1389 states 1.0 μM for PI3K δ and γ, read-out: p110 gamma Percent Inhibition
# [8] = concentration not given, b1387 states 1.1 μM for PI3K α and β, read-out: p110 beta Percent Inhibition
# T5 sequence (P42338 whole entry): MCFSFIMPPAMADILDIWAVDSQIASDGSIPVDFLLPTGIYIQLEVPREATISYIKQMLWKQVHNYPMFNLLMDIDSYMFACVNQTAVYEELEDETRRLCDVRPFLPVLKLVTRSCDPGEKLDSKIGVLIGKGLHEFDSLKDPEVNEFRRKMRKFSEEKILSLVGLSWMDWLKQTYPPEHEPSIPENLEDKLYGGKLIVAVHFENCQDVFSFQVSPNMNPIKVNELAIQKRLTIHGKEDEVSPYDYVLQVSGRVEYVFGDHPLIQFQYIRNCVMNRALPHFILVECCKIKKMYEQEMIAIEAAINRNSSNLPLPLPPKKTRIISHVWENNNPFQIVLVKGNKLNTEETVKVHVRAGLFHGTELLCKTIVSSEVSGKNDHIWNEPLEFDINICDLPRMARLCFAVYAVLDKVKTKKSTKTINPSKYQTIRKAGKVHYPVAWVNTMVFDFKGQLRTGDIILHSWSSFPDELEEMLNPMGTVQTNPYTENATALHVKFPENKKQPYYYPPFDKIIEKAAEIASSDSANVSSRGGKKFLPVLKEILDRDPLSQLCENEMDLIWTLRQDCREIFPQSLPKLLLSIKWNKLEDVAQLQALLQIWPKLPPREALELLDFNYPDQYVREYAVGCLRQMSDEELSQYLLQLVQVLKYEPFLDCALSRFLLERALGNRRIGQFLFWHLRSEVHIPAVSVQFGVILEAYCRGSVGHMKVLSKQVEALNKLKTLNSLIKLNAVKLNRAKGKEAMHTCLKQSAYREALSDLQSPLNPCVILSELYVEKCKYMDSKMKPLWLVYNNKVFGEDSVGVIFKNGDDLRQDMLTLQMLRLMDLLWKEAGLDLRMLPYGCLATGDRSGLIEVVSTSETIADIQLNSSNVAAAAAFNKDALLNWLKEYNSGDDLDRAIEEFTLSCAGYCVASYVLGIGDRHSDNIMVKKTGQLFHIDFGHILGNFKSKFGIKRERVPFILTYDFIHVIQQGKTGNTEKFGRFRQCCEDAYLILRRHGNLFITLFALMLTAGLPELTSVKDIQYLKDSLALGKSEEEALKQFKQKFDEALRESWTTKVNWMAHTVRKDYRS
# T5 sequence (P27986 whole entry partner): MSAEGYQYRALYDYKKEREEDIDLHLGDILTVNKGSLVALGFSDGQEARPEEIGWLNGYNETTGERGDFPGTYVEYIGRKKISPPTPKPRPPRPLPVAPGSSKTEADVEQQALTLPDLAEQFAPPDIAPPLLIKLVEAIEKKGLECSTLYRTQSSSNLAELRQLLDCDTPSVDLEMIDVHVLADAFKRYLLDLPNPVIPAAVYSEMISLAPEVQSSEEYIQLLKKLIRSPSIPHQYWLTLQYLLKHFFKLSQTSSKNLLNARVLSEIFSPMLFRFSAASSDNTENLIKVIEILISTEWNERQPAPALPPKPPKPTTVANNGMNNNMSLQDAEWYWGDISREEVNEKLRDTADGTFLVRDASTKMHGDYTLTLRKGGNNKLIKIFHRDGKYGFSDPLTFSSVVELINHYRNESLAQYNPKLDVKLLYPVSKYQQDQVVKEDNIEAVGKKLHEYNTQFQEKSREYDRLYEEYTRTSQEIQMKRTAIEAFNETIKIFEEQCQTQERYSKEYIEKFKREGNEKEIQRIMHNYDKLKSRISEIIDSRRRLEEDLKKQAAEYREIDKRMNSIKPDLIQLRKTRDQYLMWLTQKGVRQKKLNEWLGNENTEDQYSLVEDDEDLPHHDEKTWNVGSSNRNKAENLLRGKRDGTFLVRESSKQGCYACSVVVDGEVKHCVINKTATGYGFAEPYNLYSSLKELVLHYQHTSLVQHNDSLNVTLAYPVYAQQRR
# T3 sequence (Q8NEB9 whole entry): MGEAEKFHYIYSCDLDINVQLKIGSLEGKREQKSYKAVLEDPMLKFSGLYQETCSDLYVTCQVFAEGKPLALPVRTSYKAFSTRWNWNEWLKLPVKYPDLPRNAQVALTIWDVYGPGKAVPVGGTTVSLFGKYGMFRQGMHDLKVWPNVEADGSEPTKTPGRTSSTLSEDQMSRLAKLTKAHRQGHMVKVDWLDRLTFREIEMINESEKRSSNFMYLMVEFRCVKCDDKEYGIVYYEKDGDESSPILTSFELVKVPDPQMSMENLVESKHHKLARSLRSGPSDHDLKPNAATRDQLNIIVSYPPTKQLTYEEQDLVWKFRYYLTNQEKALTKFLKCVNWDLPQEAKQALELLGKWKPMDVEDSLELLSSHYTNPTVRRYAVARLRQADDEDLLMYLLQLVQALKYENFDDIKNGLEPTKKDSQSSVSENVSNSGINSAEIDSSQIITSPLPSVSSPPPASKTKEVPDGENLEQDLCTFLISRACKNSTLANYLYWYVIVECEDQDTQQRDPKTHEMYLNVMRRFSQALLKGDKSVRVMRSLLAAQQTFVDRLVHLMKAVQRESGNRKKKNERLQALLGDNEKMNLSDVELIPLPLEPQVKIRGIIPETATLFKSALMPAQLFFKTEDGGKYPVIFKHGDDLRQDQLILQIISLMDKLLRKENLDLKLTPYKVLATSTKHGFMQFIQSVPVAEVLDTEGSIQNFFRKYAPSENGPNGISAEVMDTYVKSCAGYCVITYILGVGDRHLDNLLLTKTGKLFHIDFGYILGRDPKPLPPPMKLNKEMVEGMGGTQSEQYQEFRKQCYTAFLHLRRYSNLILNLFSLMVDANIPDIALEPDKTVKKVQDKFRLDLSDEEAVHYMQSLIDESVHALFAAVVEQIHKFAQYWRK
# T4 sequence (P48736 whole entry): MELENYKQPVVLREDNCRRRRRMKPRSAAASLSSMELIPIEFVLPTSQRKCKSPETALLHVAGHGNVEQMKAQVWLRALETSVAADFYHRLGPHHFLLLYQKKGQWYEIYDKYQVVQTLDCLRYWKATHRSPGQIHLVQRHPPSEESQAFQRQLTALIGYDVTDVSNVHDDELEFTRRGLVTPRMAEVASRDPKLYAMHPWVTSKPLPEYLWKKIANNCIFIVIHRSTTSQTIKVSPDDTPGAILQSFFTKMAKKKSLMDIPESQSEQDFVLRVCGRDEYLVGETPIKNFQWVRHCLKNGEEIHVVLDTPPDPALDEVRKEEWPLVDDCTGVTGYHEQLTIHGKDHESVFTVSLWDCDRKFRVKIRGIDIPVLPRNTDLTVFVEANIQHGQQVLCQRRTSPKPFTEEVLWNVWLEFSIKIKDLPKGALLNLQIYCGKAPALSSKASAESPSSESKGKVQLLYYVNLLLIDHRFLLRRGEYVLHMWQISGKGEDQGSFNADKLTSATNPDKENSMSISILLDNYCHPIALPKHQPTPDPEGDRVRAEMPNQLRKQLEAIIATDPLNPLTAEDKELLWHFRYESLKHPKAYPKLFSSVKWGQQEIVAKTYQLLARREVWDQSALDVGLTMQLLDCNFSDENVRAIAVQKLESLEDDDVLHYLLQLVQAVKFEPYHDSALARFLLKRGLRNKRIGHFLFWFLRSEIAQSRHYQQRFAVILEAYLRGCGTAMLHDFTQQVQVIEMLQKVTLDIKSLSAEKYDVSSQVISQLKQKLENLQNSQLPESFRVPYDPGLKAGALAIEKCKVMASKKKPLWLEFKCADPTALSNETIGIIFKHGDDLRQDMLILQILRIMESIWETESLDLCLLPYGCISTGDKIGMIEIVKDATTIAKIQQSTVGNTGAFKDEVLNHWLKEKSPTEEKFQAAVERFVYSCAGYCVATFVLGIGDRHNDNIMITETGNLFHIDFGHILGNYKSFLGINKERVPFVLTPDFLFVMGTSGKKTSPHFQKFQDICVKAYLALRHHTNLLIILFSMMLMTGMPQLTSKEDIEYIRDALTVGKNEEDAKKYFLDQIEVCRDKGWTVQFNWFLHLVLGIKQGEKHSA
# T2 sequence (P42336 whole entry): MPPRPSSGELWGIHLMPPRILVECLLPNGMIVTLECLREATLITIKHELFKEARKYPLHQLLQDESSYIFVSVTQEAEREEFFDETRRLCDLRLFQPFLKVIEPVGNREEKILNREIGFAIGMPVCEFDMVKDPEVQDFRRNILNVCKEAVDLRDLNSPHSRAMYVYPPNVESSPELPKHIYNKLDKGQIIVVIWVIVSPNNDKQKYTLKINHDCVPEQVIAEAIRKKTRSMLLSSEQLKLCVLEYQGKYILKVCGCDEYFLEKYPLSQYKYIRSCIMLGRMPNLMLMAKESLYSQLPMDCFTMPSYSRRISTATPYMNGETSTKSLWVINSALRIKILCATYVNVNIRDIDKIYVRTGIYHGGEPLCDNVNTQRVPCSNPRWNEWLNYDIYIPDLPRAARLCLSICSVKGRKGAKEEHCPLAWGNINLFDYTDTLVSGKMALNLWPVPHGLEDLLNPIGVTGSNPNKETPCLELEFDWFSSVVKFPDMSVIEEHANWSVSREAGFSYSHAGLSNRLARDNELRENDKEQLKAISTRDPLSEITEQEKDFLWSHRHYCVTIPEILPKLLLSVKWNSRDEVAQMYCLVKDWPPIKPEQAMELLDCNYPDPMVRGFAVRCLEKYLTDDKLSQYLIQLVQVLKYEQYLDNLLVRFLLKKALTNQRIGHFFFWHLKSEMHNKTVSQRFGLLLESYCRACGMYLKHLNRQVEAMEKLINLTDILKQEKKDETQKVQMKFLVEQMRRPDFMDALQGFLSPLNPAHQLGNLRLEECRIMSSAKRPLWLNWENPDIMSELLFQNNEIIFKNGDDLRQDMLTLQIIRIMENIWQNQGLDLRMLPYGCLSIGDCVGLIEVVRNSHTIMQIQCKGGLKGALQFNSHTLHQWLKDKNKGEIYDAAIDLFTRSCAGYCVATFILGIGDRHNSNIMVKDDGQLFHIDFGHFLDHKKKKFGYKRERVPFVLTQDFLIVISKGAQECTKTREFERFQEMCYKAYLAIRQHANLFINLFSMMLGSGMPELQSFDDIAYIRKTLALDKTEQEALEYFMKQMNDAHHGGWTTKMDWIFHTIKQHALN
# T2 sequence (P27986 whole entry partner): as the sequence (P27986 whole entry partner) above
Compound,inhibition at 1 µM (Human PI3K delta; [1]),inhibition at 1.1 µM (Human PI3K alpha; [2]),inhibition at 1 µM (Human VPS34),inhibition at 1 µM (Human PI3K gamma; [3]),inhibition at 1.1 µM (Human PI3K beta; [4]),inhibition at 1 µM (Human PI3K delta; [5]),inhibition at 1.1 µM (Human PI3K alpha; [6]),inhibition at 1 µM (Human PI3K gamma; [7]),inhibition at 1.1 µM (Human PI3K beta; [8]),IC50 (Human PI3K alpha; read-out: PI3Kalpha IC50),IC50 (Human PI3K beta; read-out: PI3 Kbeta IC50)
COc1ccc(Cc2c(C(=O)O)sc(N3CCOCC3)c2C#N)c(Cl)c1 [Compound 117],78.5%,48%,28.6%,14.7%,94%,,,,,,
O=C(O)c1sc(N2CCOCC2)nc1Cc1ccc(F)cc1Cl [Compound 99],55.4%,12%,46.7%,6.4%,72%,,,,,,
O=C(O)c1sc(N2CCOCC2)nc1Cc1ccc2ccccc2c1 [Compound 98],108%,58%,68.9%,67.6%,111%,,,,,,
COc1ccc(Cc2c(C(=O)O)sc(N3CCOCC3)c2C#N)cc1Cl [Compound 108],99.6%,44%,62.4%,38.1%,100%,,,,,,
O=C(O)c1sc(N2CCOCC2)nc1Cc1ccc(C(F)(F)F)cc1 [Compound 111],60.5%,7%,46.8%,6.9%,77%,,,,,,
"N#Cc1c(N2CCOCC2)sc(C(=O)O)c1Cc1ccc(Cl)c(F)c1 [Compound 94, 3-(4-chloro-3-fluorobenzyl)-4-cyano-5-morpholin-4-ylthiophene-2-carboxylic acid]",102%,58%,30.6%,52.6%,97%,,,,,,
COc1ccc(Cc2c(C(=O)O)sc(N3CCOCC3)c2C#N)cc1 [Compound 105],51.2%,21%,22.6%,9.8%,98%,,,,,,
COc1ccc(Cc2nc(N3CCOCC3)sc2C(=O)O)cc1 [Compound 103],38.6%,2%,7.2%,6.4%,71%,,,,,,
O=C(O)c1sc(N2CCOCC2)nc1Cc1ccc(Cl)cc1Cl [Compound 104],93%,26%,63.2%,28.8%,109%,,,,,,
O=C(O)c1sc(N2CCOCC2)nc1Cc1ccc(F)cc1 [Compound 119],62.6%,9%,19.5%,7.6%,88%,,,,,,
"O=C(O)c1sc(N2CCOCC2)nc1Cc1ccc(Cl)c(F)c1 [Compound 118, 4-(4-chloro-3-fluorobenzyl)-2-morpholin-4-yl-1,3-thiazole-5-carboxylic acid]",89.3%,28%,68.2%,27.5%,104%,,,,,,
O=C(O)c1sc(N2CCOCC2)nc1Cc1ccc(Cl)c(Cl)c1 [Compound 114],113%,40%,131%,56.9%,106%,,,,,,
O=C(O)c1sc(N2CCOCC2)nc1Cc1ccc2cc(F)ccc2c1 [Compound 128],114%,46%,88.1%,63.4%,106%,,,,,,
O=C(O)c1sc(N2CCOCC2)nc1Cc1ccc(OC(F)(F)F)cc1 [Compound 109],35.4%,6%,24%,3.9%,76%,,,,,,
COc1cc(Cl)ccc1Cc1c(C(=O)O)sc(N2CCOCC2)c1C#N [Compound 125],85.1%,46%,37.1%,25.9%,99%,,,,,,
"CC(c1ccc(Cl)cc1)c1nc(N2CCOCC2)sc1C(=O)O (centres unmarked) [Compound 121, 4-[1-(4-chlorophenyl)ethyl]-2-(morpholin-4-yl)-1,3-thiazole-5-carboxylic acid]",77.3%,11%,64.8%,7.3%,59%,,,,,,
COc1ccc(Cc2nc(N3CCOCC3)sc2C(=O)O)c(Cl)c1 [Compound 120],77%,18%,38.3%,11%,97%,,,,,,
COc1cc(Cc2c(C(=O)O)sc(N3CCOCC3)c2C#N)c(F)cc1Cl [Compound 127],100%,40%,33.7%,55%,110%,,,,,,
"O=C(O)c1sc(C2=CCOCC2)nc1Cc1ccc(Cl)cc1 [Compound 100, 4-(4-chlorobenzyl)-2-(3,6-dihydro-2H-pyran-4-yl)-1,3-thiazole-5-carboxylic acid]",65.5%,20%,36.6%,13.2%,98%,,,,,,
"O=C(O)c1sc(N2CCOCC2)c(F)c1Cc1ccc(Cl)c(Cl)c1 [Compound 320, 3-(3,4-dichlorobenzyl)-4-fluoro-5-morpholinothiophene-2-carboxylic acid]",,,,,,97%,16%,35%,94%,,
COc1ccc(C(O)c2cc(-c3ccncc3)sc2-c2nnc[nH]2)cc1C (centres unmarked) [Compound 202],,,,,,54%,12%,8%,80%,,
COC(=O)Nc1cc(-c2sc(C(=O)O)c(Cc3ccc4ccccc4c3)c2C#N)ccn1 [Compound 180],,,,,,102%,60%,21%,102%,,
COc1ccc(C(O)c2cc(-c3ccncc3)sc2-c2nnc[nH]2)c(F)c1 (centres unmarked) [Compound 264],,,,,,100%,32%,28%,99%,,
CN(C)C(c1ccc(Cl)cc1)c1cc(-c2ccnc(N)c2)sc1-c1nnc[nH]1 (centres unmarked) [Compound 185],,,,,,50%,16%,9%,97%,,
"O=C(O)c1sc(N2CCOCC2)nc1Cc1ccc(Cl)cc1 [Compound 91, 4-(4-chlorobenzyl)-2-morpholinothiazole-5-carboxylic acid]",84.8%,27%,,15.4%,105%,,,,,> 1000 nM,< 100 nM
CN[C@@H]1CCN(C(c2ccc(Cl)cc2)c2cc(-c3ccnc(NC(C)=O)c3)sc2-c2nnc[nH]2)C1 (some centres unmarked) [Compound 209],,,,,,108%,92%,34%,107%,,
